Patent publication US20260226076A1, “FUSED MULTICYCLIC COMPOUNDS AND THEIR USE AS PARP1 INHIBITORS” (LAEKNA THERAPEUTICS SHANGHAI CO., LTD., priority 2022, published 2026)
Where two headings read alike, the source gives them in different places.

Assays:
PARP1 = PARP1 (Homo sapiens, UniProt P09874); test: PARP1-DNA enzymatic trapping assay; type: biochemical; settings: 10 nM PARP1, 5 nM DNA probe, 2 mM NAD+, fluorescence polarization read at 30 minutes
Procedure: Enzymatic trapping assay is to measure the dissociation process of PARP1 from fluorescein-labeled DNA during the enzymatic activity. Assay was conducted at a total 10 μL of reaction volume, including 10 nM PARP1 and 5 nM DNA probe in the binding buffer (50 mM Tris-HCl pH 8.0, 50 mM NaCl, 1 mM MgCl2, 0.1 mM EDTA, and 0.01% IGEPAL), and was commenced by adding a final concentration of 2 mM NAD+ substrate.
PARP1 Poly-ADP ribosylation (PARylation) inhibitory assay was conducted with compounds dissolved in DMSO at a starting concentration of 5 μM. Dissolved compounds were added to 384-well microplate and premixed with PARPI enzyme and DNA probe for 20 minutes incubation. Enzymatic reactions were started by adding NAD+ to mixture, and each well was read at 30 minutes by microplate reader (VICTOR Nivo®, PerkinElmer) to detect the fluorescence polarization signal at 480 nm excitation/530 nm dual emission.
All measured IC50 values were calculated using four parameters dose-response inhibition model in GraphPad Prism 8.0.2 (La Jolla, California, USA, www.graphpad.com).

MDA-MB-436 cells = test: Cell proliferation assay (MDA-MB-436); type: cell-based; settings: at least 7 days, Cell-Titer Glo, read-out: MDA-MB-436 anti-proliferation assay
Procedure: (§1) For PARPi sensitivity, exponentially growing MDA-MB-436 and DLD1 BRCA2^−/− cells were seed in 96 or 384-well plates at very low density with the goal of not splitting for at least 7 days (typically 0.3k-1.2k cells/well). Cells were plated on […] and treated with DMSO or increasing concentrations of PARP1 inhibitors on Day 0. At the end of the experiment, cell viability was estimated using Cell-Titer Glo (Promega).

DLD1 BRCA2−/− cells = test: Cell proliferation assay (DLD1 BRCA2−/−); type: cell-based; settings: at least 7 days, Cell-Titer Glo, read-out: DLD1 BRCA2−/− anti-proliferation assay
Procedure: as §1

[1] = Homo sapiens, MDA-MB-436, 168 h

Sequence of PARP1 (P09874 whole entry): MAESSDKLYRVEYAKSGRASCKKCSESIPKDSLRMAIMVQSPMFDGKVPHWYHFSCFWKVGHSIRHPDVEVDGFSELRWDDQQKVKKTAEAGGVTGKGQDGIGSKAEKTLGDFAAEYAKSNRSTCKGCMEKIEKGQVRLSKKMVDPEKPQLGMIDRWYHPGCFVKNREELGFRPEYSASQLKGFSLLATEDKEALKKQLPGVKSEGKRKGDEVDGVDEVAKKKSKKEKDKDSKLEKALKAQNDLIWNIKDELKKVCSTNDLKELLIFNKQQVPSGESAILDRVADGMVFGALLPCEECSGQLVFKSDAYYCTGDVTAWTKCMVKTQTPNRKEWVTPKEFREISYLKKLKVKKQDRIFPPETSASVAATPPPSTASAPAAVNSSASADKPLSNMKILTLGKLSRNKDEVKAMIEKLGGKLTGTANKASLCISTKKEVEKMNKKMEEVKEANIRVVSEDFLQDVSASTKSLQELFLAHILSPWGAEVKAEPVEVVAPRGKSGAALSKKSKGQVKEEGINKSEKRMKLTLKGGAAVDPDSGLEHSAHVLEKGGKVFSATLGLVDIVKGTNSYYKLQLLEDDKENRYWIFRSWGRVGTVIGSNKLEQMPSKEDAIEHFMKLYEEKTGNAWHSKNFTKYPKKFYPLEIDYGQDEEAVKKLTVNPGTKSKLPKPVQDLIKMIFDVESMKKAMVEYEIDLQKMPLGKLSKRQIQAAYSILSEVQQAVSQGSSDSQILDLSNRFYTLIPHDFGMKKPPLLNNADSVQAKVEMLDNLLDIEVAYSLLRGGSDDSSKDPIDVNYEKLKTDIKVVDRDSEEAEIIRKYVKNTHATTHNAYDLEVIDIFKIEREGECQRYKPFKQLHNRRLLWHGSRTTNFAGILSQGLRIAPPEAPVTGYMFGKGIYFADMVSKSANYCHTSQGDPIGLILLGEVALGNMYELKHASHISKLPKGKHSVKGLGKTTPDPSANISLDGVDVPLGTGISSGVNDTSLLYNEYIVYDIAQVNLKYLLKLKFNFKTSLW

| Structure (SMILES) | IC50 (PARP1) | IC50 (MDA-MB-436 cells; [1]) | IC50 (DLD1 BRCA2−/− cells; Homo sapiens, DLD-1, 168 h) | IC50 (MDA-MB-436 cells) | IC50 (DLD1 BRCA2−/− cells) |
| --- | --- | --- | --- | --- | --- |
| CNC(=O)c1ccc(N2C[C@@H]3CN(Cc4ccc5nc(C)c(=O)[nH]c5c4F)C[C@H]3C2)c(F)n1 [Compound 11] | 323 nM | > 500 nM | > 500 nM |  |  |
| CNC(=O)c1ccc(N2C[C@@H]3CN(Cc4ccc5nc(C)c(=O)[nH]c5c4F)C[C@H]3C2)cn1 (racemic) [Compound 6] | 262 nM | 76.1 nM | 49.3 nM |  |  |
| Cc1cc2ncc(CN3C[C@H]4CN(c5ccc(C(=O)NC6CC6)nc5)C[C@@H]4C3)cc2[nH]c1=O (racemic) [Compound 20] | 16.6 nM | 3.47 nM | 4.12 nM |  |  |
| CNC(=O)c1ccc(N2C[C@H]3CN(Cc4cnc5c6c(c(=O)[nH]c5c4)CCC6)C[C@@H]3C2)cn1 [Compound 47] | 9.42 nM | 1.1 nM | 0.77 nM |  |  |
| CCc1cc2ncc(CN3C[C@H]4CN(c5ccc(C(=O)NC)nc5)C[C@@H]4C3)cc2[nH]c1=O (racemic) [Compound 2] | 10.7 nM |  |  | 0.4 nM | 1.98 nM |
| CNC(=O)c1ccc(N2C[C@@H]3CN(Cc4cnc5c(c4)[nH]c(=O)n4cccc54)C[C@H]3C2)cn1 (racemic) [Compound 12] | 17.3 nM | 5.03 nM | 3.68 nM |  |  |
| CNC(=O)c1ccc(N2C[C@@H]3CN(Cc4cnc5c(c4)NC(=O)[C@@H]4CCCN54)C[C@H]3C2)c(F)n1 [Compound 23] | 31.1 nM | 20.2 nM | 34.9 nM |  |  |
| CNC(=O)c1ccc(N2C[C@H]3CN(Cc4cc5[nH]c(=O)c(C)cc5cn4)C[C@@H]3C2)c(F)n1 [Compound 36] | 8.44 nM | 2.08 nM | 1.51 nM |  |  |
| CCc1cc2ncc(CN3C[C@@H]4CN(c5ccc(C(=O)NC)nc5)C[C@@H]4C3)cc2[nH]c1=O [Compound 1] | 42.9 nM | 410 nM | > 500 nM |  |  |
| CCC1Oc2ncc(CN3C[C@H]4CN(c5ccc(C(=O)NC6CC6)nc5F)C[C@@H]4C3)cc2NC1=O (mixture of isomers) [Compound 18] | 27.3 nM | 11.4 nM | 12.7 nM |  |  |
| CNC(=O)c1ccc(N2C[C@@H]3CN(Cc4ccc5c(c4F)NC(=O)C(C)O5)C[C@H]3C2)cn1 (mixture of isomers) [Compound 17] | > 500 nM | > 500 nM | 468 nM |  |  |
| CCc1cc2ncc(CN3C[C@H]4CN(c5ccc(C(=O)NC)nc5)C[C@@H]4C3)cc2[nH]c1=O [Compound 9] | 10.8 nM |  | 1.29 nM | 1.76 nM |  |
| CNC(=O)c1ccc(N2C[C@H]3CN(Cc4cnc5c(c4)NC(=O)[C@@H]4CCCN54)C[C@@H]3C2)c(F)n1 [Compound 22] | 10.9 nM | 0.69 nM | 1.09 nM |  |  |
| CNC(=O)c1ccc(N2C[C@@H]3CN(Cc4ccc5c(c4)[nH]c(=O)n4ccnc54)C[C@H]3C2)cn1 (racemic) [Compound 13] | 46.3 nM | 31.6 nM | 10.6 nM |  |  |
| CNC(=O)c1ccc(N2C[C@H]3CN(Cc4ccc5nc(C)c(=O)[nH]c5c4F)C[C@@H]3C2)c(F)n1 [Compound 10] | 20.6 nM | 7.84 nM | 4.92 nM |  |  |
| CCc1cc2cnc(CN3C[C@@H]4CN(c5ccc(C(=O)NC)nc5)C[C@@H]4C3)cc2[nH]c1=O [Compound 39] | 9.74 nM | 1.39 nM | 1.22 nM |  |  |
| CCC1Oc2ncc(CN3C[C@H]4CN(c5ccc(C(=O)NC6CC6)nc5)C[C@@H]4C3)cc2NC1=O (mixture of isomers) [Compound 16] | > 500 nM | > 500 nM | > 500 nM |  |  |

The remaining lines, values ahead:

| IC50 (PARP1) | IC50 (MDA-MB-436 cells; [1]) | IC50 (DLD1 BRCA2−/− cells; Homo sapiens, DLD-1, 168 h) | IC50 (MDA-MB-436 cells) | IC50 (DLD1 BRCA2−/− cells) | Structure (SMILES) |
| --- | --- | --- | --- | --- | --- |
| 5.17 nM | 0.37 nM | 1.35 nM |  |  | O=C(NC1COC1)c1ccc(N2C[C@H]3CN(Cc4cc5[nH]c(=O)c6c(c5cn4)CCC6)C[C@@H]3C2)c(F)n1 [Compound 59] |
| 7.86 nM | 1.05 nM | 4.04 nM |  |  | O=C(N[C@@H]1CCOC1)c1ccc(N2C[C@H]3CN(Cc4cnc5c6c(c(=O)[nH]c5c4)CCC6)C[C@@H]3C2)c(F)n1 [Compound 50] |
| 13.5 nM | 4.63 nM | 5.98 nM |  |  | CCc1nc2ncc(CN3C[C@@H]4CN(c5ccc(C(=O)NC)nc5F)C[C@H]4C3)cc2[nH]c1=O [Compound 37] |
| 7.68 nM | 2.51 nM | 12.9 nM |  |  | O=C(NC1CCOCC1)c1ccc(N2C[C@H]3CN(Cc4cc5[nH]c(=O)c6c(c5cn4)CCC6)C[C@@H]3C2)c(F)n1 [Compound 58] |
| 14.6 nM | 0.6 nM | 12.3 nM |  |  | COCCNC(=O)c1ccc(N2C[C@H]3CN(Cc4ccc5c6c(c(=O)[nH]c5c4)COCC6)C[C@@H]3C2)cn1 [Compound 68] |
| 101 nM | 7.29 nM | 141 nM |  |  | CNC(=O)c1ccc(N2C[C@H]3CN(Cc4cc5[nH]c(=O)c6c(c5cn4)COC6)C[C@@H]3C2)c(F)n1 [Compound 63] |
| 9.14 nM | 1.35 nM | 7.97 nM |  |  | O=C(NC1COC1)c1ccc(N2C[C@H]3CN(Cc4ccc5c6c(c(=O)[nH]c5c4)COC6)C[C@@H]3C2)c(F)n1 [Compound 61] |
| 23.7 nM | 3 nM | 4.14 nM |  |  | COCCNC(=O)c1ccc(N2C[C@H]3CN(Cc4cnc5cc(C)c(=O)[nH]c5c4)C[C@@H]3C2)c(F)n1 [Compound 35] |
| 7.81 nM | 2.48 nM | 4.13 nM |  |  | CNC(=O)c1ccc(N2C[C@H]3CN(Cc4cnc5cc(OC)c(=O)[nH]c5c4)C[C@@H]3C2)c(F)n1 [Compound 33] |
| 8.35 nM | 0.98 nM | 1.49 nM |  |  | CNC(=O)c1ccc(N2C[C@H]3CN(Cc4ccc5nc(C)c(=O)[nH]c5c4)C[C@@H]3C2)c(F)n1 [Compound 31] |
| 5.17 nM | 0.71 nM | 3.37 nM |  |  | O=C(N[C@@H]1CCOC1)c1ccc(N2C[C@H]3CN(Cc4cc5[nH]c(=O)c6c(c5cn4)CCC6)C[C@@H]3C2)c(F)n1 [Compound 56] |
| 7.9 nM | 1.42 nM | 4.56 nM |  |  | CNC(=O)c1ccc(N2C[C@H]3CN(Cc4ccc5c6c(c(=O)[nH]c5c4)OCCC6)C[C@@H]3C2)c(F)n1 [Compound 88] |
| 10.9 nM | 0.59 nM | 0.87 nM |  |  | CNC(=O)c1ccc(N2C[C@H]3CN(Cc4cnc5cc(C)c(=O)[nH]c5c4)C[C@@H]3C2)c(F)n1 [Compound 29] |
| 6.96 nM | 1.24 nM | 4.66 nM |  |  | COCCNC(=O)c1ccc(N2C[C@H]3CN(Cc4cc5[nH]c(=O)c6c(c5cn4)CCC6)C[C@@H]3C2)c(F)n1 [Compound 55] |
| 10.4 nM | 0.64 nM | 2.16 nM |  |  | COCCNC(=O)c1ccc(N2C[C@H]3CN(Cc4ccc5c6c(c(=O)[nH]c5c4)COCC6)C[C@@H]3C2)c(F)n1 [Compound 67] |
| 5.99 nM | 0.69 nM | 1.6 nM |  |  | CCc1cc2ncc(CN3C[C@H]4CN(c5ccc(C(=O)NCCOC)nc5)C[C@@H]4C3)cc2[nH]c1=O (racemic) [Compound 26] |
| 7.82 nM | 1.53 nM | 5.86 nM |  |  | CNC(=O)c1ccc(N2C[C@H]3CN(Cc4cnc5c6c(c(=O)[nH]c5c4)COC6)C[C@@H]3C2)c(F)n1 [Compound 62] |
| 17.8 nM | 1.91 nM | 1.76 nM |  |  | CNC(=O)c1ccc(N2C[C@@H]3CN(Cc4cnc5cc(C)c(=O)[nH]c5c4)C[C@H]3C2)c(F)n1 (racemic) [Compound 21] |
| 6.13 nM |  |  | 0.59 nM | 0.59 nM | CCc1cc2ncc(CN3C[C@H]4CN(c5ccc(C(=O)NC)nc5F)C[C@@H]4C3)cc2[nH]c1=O (racemic) [Compound 19] |
| 7.36 nM | 0.7 nM | 2.96 nM |  |  | O=C(N[C@H]1CCOC1)c1ccc(N2C[C@H]3CN(Cc4cnc5c6c(c(=O)[nH]c5c4)CCC6)C[C@@H]3C2)c(F)n1 [Compound 51] |
| 18.9 nM | 1.24 nM | 8.41 nM |  |  | O=C(N[C@H]1CCOC1)c1ccc(N2C[C@H]3CN(Cc4cc5[nH]c(=O)c6c(c5cn4)CCC6)C[C@@H]3C2)c(F)n1 [Compound 57] |
| 7.6 nM | 1.05 nM | 4.66 nM |  |  | CNC(=O)c1ccc(N2C[C@H]3CN(Cc4cnc5c6c(c(=O)[nH]c5c4)OCCC6)C[C@@H]3C2)c(F)n1 [Compound 81] |
| 411 nM |  |  |  |  | O=C(NC1COC1)c1ccc(N2C[C@H]3CN(Cc4ccc5c6c(c(=O)[nH]c5c4)COCC6)C[C@@H]3C2)c(Cl)n1 [Compound 84] |
